# US20240158446A1, “CYCLIC COMPOUND HAVING SELECTIVE INHIBITORY ACTION ON KRAS OVER HRAS AND NRAS” (CHUGAI SEIYAKU KABUSHIKI KAISHA, priority 2021, published 2024)
# pKd: −log10 of the molar value. *1 amine or outer side, *2 acyl side, *3 side chain or, on linkers, in order; H or OH if unused. Where a SMILES comes first, the peptide text is derived from it. Bridges are numbered along the chain shown (N, C = ends). [ ]: non-standard residue; d: D form. The star is where a group is joined. hPhe(3,5-F2-4-CF3) = N[C@@H](CCc1cc(F)c(C(F)(F)F)c(F)c1)C(=O)O; NPrPhe(4-CF3) = CCCN[C@@H](Cc1ccc(C(F)(F)F)cc1)C(=O)O; NMeAbu(4,4,4-F3) = CN[C@@H](CC(F)(F)F)C(=O)O; NMeGly(cPent) = CN[C@H](C(=O)O)C1CCCC1; Ac4c(3,3-F2) = NC1(C(=O)O)CC(F)(F)C1; X11 = CCC[C@](C)(N[*:1])C(=O)[*:2]; αMeCha = C[C@](N)(CC1CCCCC1)C(=O)O; αMeI = CC[C@H](C)[C@](C)(N)C(=O)O; αMeF = C[C@](N)(Cc1ccccc1)C(=O)O; NMeD = CN[C@@H](CC(=O)O)C(=O)O; Ac4c(3-oxa) = NC1(C(=O)O)COC1; NMeL = CN[C@@H](CC(C)C)C(=O)O; αMeL = CC(C)C[C@](C)(N)C(=O)O; αMeV = CC(C)[C@](C)(N)C(=O)O; αMeS = C[C@](N)(CO)C(=O)O; Ac5c = NC1(C(=O)O)CCCC1; Sar = CNCC(=O)O; tBu = CC(C)(C)*; Allyl = C=CC*
# Key:
# [1] = target: GDP-bound NRAS wild-type protein (Homo sapiens, UniProt P01111); experiment: Binding to NRAS by surface plasmon resonance (SPR), Single Cycle Kinetics; settings: SPR, GDP-bound NRAS wild-type protein vs GDP-bound KRAS wild-type protein
# GDP-bound NRAS wild-type protein, sequence (P01111 whole entry): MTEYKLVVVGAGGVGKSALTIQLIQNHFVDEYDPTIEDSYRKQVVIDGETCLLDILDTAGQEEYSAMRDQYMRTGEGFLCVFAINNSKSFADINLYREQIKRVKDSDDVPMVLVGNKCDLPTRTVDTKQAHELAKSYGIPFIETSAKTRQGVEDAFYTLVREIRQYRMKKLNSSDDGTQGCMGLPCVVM
# [2] = target: GDP-bound KRAS wild-type protein (Homo sapiens, UniProt P01116); experiment: Binding to KRAS by surface plasmon resonance (SPR), Single Cycle Kinetics; settings: SPR Single Cycle Kinetics, GDP-bound KRAS wild-type protein, 1:1 binding model; read-out: KRAS KD
# GDP-bound KRAS wild-type protein, sequence (P01116 whole entry): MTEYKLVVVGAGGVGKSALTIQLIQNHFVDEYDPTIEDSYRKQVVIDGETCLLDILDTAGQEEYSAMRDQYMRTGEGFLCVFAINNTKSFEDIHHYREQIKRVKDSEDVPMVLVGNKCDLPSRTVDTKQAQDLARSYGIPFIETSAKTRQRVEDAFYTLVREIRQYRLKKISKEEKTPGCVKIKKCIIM
# [3] = target: GDP-bound HRAS wild-type protein (Homo sapiens, UniProt P01112); experiment: Binding to HRAS by surface plasmon resonance (SPR), Single Cycle Kinetics; settings: SPR, GDP-bound HRAS wild-type protein vs GDP-bound KRAS wild-type protein
# GDP-bound HRAS wild-type protein, sequence (P01112 whole entry): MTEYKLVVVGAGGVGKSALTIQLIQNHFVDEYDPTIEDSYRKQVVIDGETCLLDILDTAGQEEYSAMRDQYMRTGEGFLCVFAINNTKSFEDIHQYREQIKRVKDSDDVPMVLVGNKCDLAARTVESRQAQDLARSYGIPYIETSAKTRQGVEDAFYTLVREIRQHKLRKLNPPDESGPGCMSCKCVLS
SMILES,NRAS/KRAS (ratio of KD value with respect to NRAS to KD value with respect to KRAS) [1],pKd [2],HRAS/KRAS (ratio of KD value with respect to HRAS to KD value with respect to KRAS) [3]
"CCCN1C(=O)CN(C)C(=O)CN(C)C(=O)[C@H]([C@@H](C)CC)NC(=O)[C@H](CC(C)C)N(C)C(=O)C[C@@H](C(=O)N(C)C)N(C)C(=O)[C@H](C2CCCC2)N(C)C(=O)[C@](C)(C(C)C)NC(=O)[C@@H]2CCCN2C(=O)[C@H](CCc2cc(F)c(C(F)(F)F)c(F)c2)NC(=O)CN(C)C(=O)[C@@H]1Cc1ccc(C(F)(F)F)cc1 [PP0735] ([NMeL]I[Sar][Sar][NPrPhe(4-CF3)][Sar][hPhe(3,5-F2-4-CF3)]P[αMeV][NMeGly(cPent)][NMeD]-NMe2; lactam N-11)",B (a compound having 3 or more and less than 10 is denoted as B),9.57,C (A compound having a KD ratio of 0.1 or more and less than 3 is denoted as C)
"CCCN1C(=O)CN(C)C(=O)CN(C)C(=O)[C@H]([C@@H](C)CC)NC(=O)[C@H](CC(C)C)N(C)C(=O)C[C@@H](C(=O)N(C)C)N(C)C(=O)[C@H](C2CCCC2)N(C)C(=O)[C@](C)([C@@H](C)CC)NC(=O)[C@@H]2CCCN2C(=O)[C@H](CCc2cc(F)c(C(F)(F)F)c(F)c2)NC(=O)CN(C)C(=O)[C@@H]1Cc1ccc(C(F)(F)F)cc1 [PP0736] ([NMeL]I[Sar][Sar][NPrPhe(4-CF3)][Sar][hPhe(3,5-F2-4-CF3)]P[αMeI][NMeGly(cPent)][NMeD]-NMe2; lactam N-11)",B (a compound having 3 or more and less than 10 is denoted as B),8.74,C (A compound having a KD ratio of 0.1 or more and less than 3 is denoted as C)
"CCCN1C(=O)CN(C)C(=O)CN(C)C(=O)[C@H]([C@@H](C)CC)NC(=O)[C@H](CC(C)C)N(C)C(=O)C[C@@H](C(=O)N(C)C)N(C)C(=O)[C@H](C2CCCC2)N(C)C(=O)[C@](C)(CCC)NC(=O)[C@@H]2CCCN2C(=O)[C@H](CCc2cc(F)c(C(F)(F)F)c(F)c2)NC(=O)CN(C)C(=O)[C@@H]1Cc1ccc(C(F)(F)F)cc1 [PP0737] ([NMeL]I[Sar][Sar][NPrPhe(4-CF3)][Sar][hPhe(3,5-F2-4-CF3)]P[X11][NMeGly(cPent)][NMeD]-NMe2; lactam N-11)",B (a compound having 3 or more and less than 10 is denoted as B),9.26,C (A compound having a KD ratio of 0.1 or more and less than 3 is denoted as C)
"CCCN1C(=O)CN(C)C(=O)CN(C)C(=O)[C@H]([C@@H](C)CC)NC(=O)[C@H](CC(C)C)N(C)C(=O)C[C@@H](C(=O)N(C)C)N(C)C(=O)[C@H](C2CCCC2)N(C)C(=O)[C@](C)(CC(C)C)NC(=O)[C@@H]2CCCN2C(=O)[C@H](CCc2cc(F)c(C(F)(F)F)c(F)c2)NC(=O)CN(C)C(=O)[C@@H]1Cc1ccc(C(F)(F)F)cc1 [PP0738] ([NMeL]I[Sar][Sar][NPrPhe(4-CF3)][Sar][hPhe(3,5-F2-4-CF3)]P[αMeL][NMeGly(cPent)][NMeD]-NMe2; lactam N-11)",B (a compound having 3 or more and less than 10 is denoted as B),9.19,B (a compound having 3 or more and less than 10 is denoted as B)
"CCCN1C(=O)CN(C)C(=O)CN(C)C(=O)[C@H]([C@@H](C)CC)NC(=O)[C@H](CC(C)C)N(C)C(=O)C[C@@H](C(=O)N(C)C)N(C)C(=O)[C@H](C2CCCC2)N(C)C(=O)[C@](C)(CC2CCCCC2)NC(=O)[C@@H]2CCCN2C(=O)[C@H](CCc2cc(F)c(C(F)(F)F)c(F)c2)NC(=O)CN(C)C(=O)[C@@H]1Cc1ccc(C(F)(F)F)cc1 [PP0739] ([NMeL]I[Sar][Sar][NPrPhe(4-CF3)][Sar][hPhe(3,5-F2-4-CF3)]P[αMeCha][NMeGly(cPent)][NMeD]-NMe2; lactam N-11)",B (a compound having 3 or more and less than 10 is denoted as B),8.43,C (A compound having a KD ratio of 0.1 or more and less than 3 is denoted as C)
"CCCN1C(=O)CN(C)C(=O)CN(C)C(=O)[C@H]([C@@H](C)CC)NC(=O)[C@H](CC(C)C)N(C)C(=O)C[C@@H](C(=O)N(C)C)N(C)C(=O)[C@H](C2CCCC2)N(C)C(=O)[C@](C)(Cc2ccccc2)NC(=O)[C@@H]2CCCN2C(=O)[C@H](CCc2cc(F)c(C(F)(F)F)c(F)c2)NC(=O)CN(C)C(=O)[C@@H]1Cc1ccc(C(F)(F)F)cc1 [PP0740] ([NMeL]I[Sar][Sar][NPrPhe(4-CF3)][Sar][hPhe(3,5-F2-4-CF3)]P[αMeF][NMeGly(cPent)][NMeD]-NMe2; lactam N-11)",B (a compound having 3 or more and less than 10 is denoted as B),9.33,C (A compound having a KD ratio of 0.1 or more and less than 3 is denoted as C)
"CCCN1C(=O)CN(C)C(=O)CN(C)C(=O)[C@H]([C@@H](C)CC)NC(=O)[C@H](CC(C)C)N(C)C(=O)C[C@@H](C(=O)N(C)C)N(C)C(=O)[C@H](C2CCCC2)N(C)C(=O)[C@](C)(COC)NC(=O)[C@@H]2CCCN2C(=O)[C@H](CCc2cc(F)c(C(F)(F)F)c(F)c2)NC(=O)CN(C)C(=O)[C@@H]1Cc1ccc(C(F)(F)F)cc1 [PP0741] ([NMeL]I[Sar][Sar][NPrPhe(4-CF3)][Sar][hPhe(3,5-F2-4-CF3)]P[αMeS](Me)[NMeGly(cPent)][NMeD]-NMe2; lactam N-11)",B (a compound having 3 or more and less than 10 is denoted as B),9.55,B (a compound having 3 or more and less than 10 is denoted as B)
"C=CCOC[C@]1(C)NC(=O)[C@@H]2CCCN2C(=O)[C@H](CCc2cc(F)c(C(F)(F)F)c(F)c2)NC(=O)CN(C)C(=O)[C@H](Cc2ccc(C(F)(F)F)cc2)N(CCC)C(=O)CN(C)C(=O)CN(C)C(=O)[C@H]([C@@H](C)CC)NC(=O)[C@H](CC(C)C)N(C)C(=O)C[C@@H](C(=O)N(C)C)N(C)C(=O)[C@H](C2CCCC2)N(C)C1=O [PP0742] ([NMeL]I[Sar][Sar][NPrPhe(4-CF3)][Sar][hPhe(3,5-F2-4-CF3)]P[αMeS](Allyl)[NMeGly(cPent)][NMeD]-NMe2; lactam N-11)",B (a compound having 3 or more and less than 10 is denoted as B),9.29,B (a compound having 3 or more and less than 10 is denoted as B)
"CCCN1C(=O)CN(C)C(=O)CN(C)C(=O)[C@H]([C@@H](C)CC)NC(=O)[C@H](CC(C)C)N(C)C(=O)C[C@@H](C(=O)N(C)C)N(C)C(=O)[C@H](C2CCCC2)N(C)C(=O)[C@](C)(COC(C)(C)C)NC(=O)[C@@H]2CCCN2C(=O)[C@H](CCc2cc(F)c(C(F)(F)F)c(F)c2)NC(=O)CN(C)C(=O)[C@@H]1Cc1ccc(C(F)(F)F)cc1 [PP0743] ([NMeL]I[Sar][Sar][NPrPhe(4-CF3)][Sar][hPhe(3,5-F2-4-CF3)]P[αMeS](tBu)[NMeGly(cPent)][NMeD]-NMe2; lactam N-11)",B (a compound having 3 or more and less than 10 is denoted as B),9.17,C (A compound having a KD ratio of 0.1 or more and less than 3 is denoted as C)
"CCCN1C(=O)CN(C)C(=O)CN(C)C(=O)[C@H]([C@@H](C)CC)NC(=O)[C@H](CC(C)C)N(C)C(=O)C[C@@H](C(=O)N(C)C)N(C)C(=O)[C@H](C2CCCC2)N(C)C(=O)C2(COC2)NC(=O)[C@@H]2CCCN2C(=O)[C@H](CCc2cc(F)c(C(F)(F)F)c(F)c2)NC(=O)CN(C)C(=O)[C@@H]1Cc1ccc(C(F)(F)F)cc1 [PP0744] ([NMeL]I[Sar][Sar][NPrPhe(4-CF3)][Sar][hPhe(3,5-F2-4-CF3)]P[Ac4c(3-oxa)][NMeGly(cPent)][NMeD]-NMe2; lactam N-11)",B (a compound having 3 or more and less than 10 is denoted as B),10.22,B (a compound having 3 or more and less than 10 is denoted as B)
"CCCN1C(=O)CN(C)C(=O)CN(C)C(=O)[C@H]([C@@H](C)CC)NC(=O)[C@H](CC(C)C)N(C)C(=O)C[C@@H](C(=O)N(C)C)N(C)C(=O)[C@H](C2CCCC2)N(C)C(=O)C2(CC(F)(F)C2)NC(=O)[C@@H]2CCCN2C(=O)[C@H](CCc2cc(F)c(C(F)(F)F)c(F)c2)NC(=O)CN(C)C(=O)[C@@H]1Cc1ccc(C(F)(F)F)cc1 [PP0745] ([NMeL]I[Sar][Sar][NPrPhe(4-CF3)][Sar][hPhe(3,5-F2-4-CF3)]P[Ac4c(3,3-F2)][NMeGly(cPent)][NMeD]-NMe2; lactam N-11)",B (a compound having 3 or more and less than 10 is denoted as B),10.54,C (A compound having a KD ratio of 0.1 or more and less than 3 is denoted as C)
"CCCN1C(=O)CN(C)C(=O)CN(C)C(=O)[C@H]([C@@H](C)CC)NC(=O)[C@H](CC(C)C)N(C)C(=O)C[C@@H](C(=O)N(C)C)N(C)C(=O)[C@H](CC(F)(F)F)N(C)C(=O)C2(CCCC2)NC(=O)[C@@H]2CCCN2C(=O)[C@H](CCc2cc(F)c(C(F)(F)F)c(F)c2)NC(=O)CN(C)C(=O)[C@@H]1Cc1ccc(C(F)(F)F)cc1 [PP0746] ([NMeL]I[Sar][Sar][NPrPhe(4-CF3)][Sar][hPhe(3,5-F2-4-CF3)]P[Ac5c][NMeAbu(4,4,4-F3)][NMeD]-NMe2; lactam N-11)",B (a compound having 3 or more and less than 10 is denoted as B),9.37,C (A compound having a KD ratio of 0.1 or more and less than 3 is denoted as C)
